Each structure is given as a SMILES string. Read-outs that look alike come from different tables or passages of the source.

Test [1] has as its target PIM (PIM-1, PIM-2, and/or PIM-3). As to the kind of experiment: PIM-1, PIM-2 and PIM-3 inhibition, biochemical chemiluminescence assays (Kinase Glo, IC50 determination). Conditions: Table 1 activity class; PIM refers to PIM-1, PIM-2, and/or PIM-3; read-out: PIM IC50 (Activity B).
A further test has as its target CK2 (Homo sapiens, UniProt P68400). As to the kind of experiment: CK2 inhibition, biochemical chemiluminescence holoenzyme assay (Kinase Glo, IC50 determination). Conditions: Table 1 activity class; symbol given only if active; read-out: CK2 IC50 (Activity C). In short, it runs like this:
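Holoenzyme CK2 assay; compounds pre-incubated with substrate and enzyme, then reacted 150 min at 24-27° C. Remaining ATP measured as luminescence with Kinase Glo, and IC50 derived from the signal.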

A further test has as its target CDC7 (Homo sapiens, UniProt O00311). As to the kind of experiment: CDC7 inhibition, biochemical chemiluminescence assay (Kinase Glo, IC50 determination). In a few lines:
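CDC7 enzyme preincubated with compound 10 min at ambient temperature, then ATP mix in Tris Base added; reaction 90 min at 24-27 °C. Remaining ATP quantified by Kinase Glo luminescence to give IC50.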

Setting [2] is: Table 1 activity class, symbol given only if active, read-out: CDC7 IC50 (Activity A).
Where [3] appears, read: compounds in Table 1, read-out: CDC7 IC50 value.

CK2, sequence (P68400 whole entry): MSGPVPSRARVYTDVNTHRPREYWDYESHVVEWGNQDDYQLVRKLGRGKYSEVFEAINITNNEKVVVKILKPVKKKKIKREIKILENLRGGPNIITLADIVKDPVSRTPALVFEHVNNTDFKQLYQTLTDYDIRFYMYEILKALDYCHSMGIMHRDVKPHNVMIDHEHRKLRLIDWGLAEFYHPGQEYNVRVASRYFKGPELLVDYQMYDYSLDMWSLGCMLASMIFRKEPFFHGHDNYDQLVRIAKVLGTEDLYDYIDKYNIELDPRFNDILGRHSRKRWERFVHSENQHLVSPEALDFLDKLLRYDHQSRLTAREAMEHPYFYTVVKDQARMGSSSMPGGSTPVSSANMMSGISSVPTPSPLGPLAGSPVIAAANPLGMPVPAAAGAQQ
CK2, sequence (P67870 whole entry partner): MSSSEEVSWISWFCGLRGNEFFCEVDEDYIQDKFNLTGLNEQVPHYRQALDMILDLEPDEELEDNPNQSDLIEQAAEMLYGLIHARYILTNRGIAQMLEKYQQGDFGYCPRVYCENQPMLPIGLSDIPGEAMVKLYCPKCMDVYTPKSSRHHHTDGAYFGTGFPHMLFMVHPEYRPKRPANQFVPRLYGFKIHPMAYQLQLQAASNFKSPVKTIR
CDC7, sequence (O00311 whole entry): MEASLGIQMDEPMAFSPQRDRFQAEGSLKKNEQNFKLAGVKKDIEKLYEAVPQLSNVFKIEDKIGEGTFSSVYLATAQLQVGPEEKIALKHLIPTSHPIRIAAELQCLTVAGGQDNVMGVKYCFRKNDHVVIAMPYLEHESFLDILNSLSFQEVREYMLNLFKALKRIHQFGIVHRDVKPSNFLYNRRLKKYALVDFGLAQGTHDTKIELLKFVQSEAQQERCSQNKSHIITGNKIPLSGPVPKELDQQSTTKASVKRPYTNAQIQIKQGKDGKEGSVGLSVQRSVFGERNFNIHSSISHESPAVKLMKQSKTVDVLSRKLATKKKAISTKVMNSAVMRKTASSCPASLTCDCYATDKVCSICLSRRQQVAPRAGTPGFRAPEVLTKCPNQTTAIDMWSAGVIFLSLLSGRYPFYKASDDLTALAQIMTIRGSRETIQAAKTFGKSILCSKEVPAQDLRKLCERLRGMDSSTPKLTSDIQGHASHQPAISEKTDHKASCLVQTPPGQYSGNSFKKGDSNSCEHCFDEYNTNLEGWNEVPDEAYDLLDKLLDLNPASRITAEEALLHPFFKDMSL
CDC7, sequence (Q9UBU7 whole entry partner): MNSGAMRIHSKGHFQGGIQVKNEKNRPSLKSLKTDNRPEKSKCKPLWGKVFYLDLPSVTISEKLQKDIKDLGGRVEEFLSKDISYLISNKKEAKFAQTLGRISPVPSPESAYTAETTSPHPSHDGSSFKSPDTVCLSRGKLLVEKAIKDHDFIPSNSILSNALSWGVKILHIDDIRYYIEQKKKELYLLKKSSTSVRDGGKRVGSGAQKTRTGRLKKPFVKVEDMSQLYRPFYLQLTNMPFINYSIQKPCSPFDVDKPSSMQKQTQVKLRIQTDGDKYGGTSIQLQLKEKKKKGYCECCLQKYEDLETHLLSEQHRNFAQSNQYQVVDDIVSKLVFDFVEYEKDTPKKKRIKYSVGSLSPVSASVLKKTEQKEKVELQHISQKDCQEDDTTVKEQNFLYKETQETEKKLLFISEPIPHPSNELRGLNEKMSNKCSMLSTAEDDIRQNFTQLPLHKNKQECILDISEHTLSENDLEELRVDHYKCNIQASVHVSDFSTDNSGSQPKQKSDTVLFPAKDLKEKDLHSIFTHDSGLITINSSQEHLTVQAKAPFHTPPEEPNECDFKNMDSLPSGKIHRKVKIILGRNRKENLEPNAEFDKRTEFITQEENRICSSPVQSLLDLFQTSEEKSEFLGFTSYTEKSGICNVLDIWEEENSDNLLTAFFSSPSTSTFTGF

The IC50 is the concentration at which inhibition is half-maximal. Turning to `COc1ccc2oc3c(=O)[nH]c([C@@H]4CC(F)(F)CN4)nc3c2c1` [Compound 531, 2-[(2S)-4,4-difluoropyrrolidin-2-yl]-8-(methyloxy)[1]benzofuro[3,2-d]pyrimidin-4(3H)-one], the IC50 in test [1] is below 10 µM; at CK2 it was below 10 µM; at CDC7 (setting [2]) it was below 10 µM; at CDC7 (setting [3]), below 0.1 µM.
`COc1ccc2oc3c(=O)[nH]c(C4CCCN4)nc3c2c1` (stereo in doubt) [Compound 495, 8-(methyloxy)-2-[(2R)-pyrrolidin-2-yl][1]benzofuro[3,2-d]pyrimidin-4(3H)-one]: the IC50 was below 10 µM in test [1], below 10 µM on CK2, below 10 µM at CDC7 (setting [2]) and below 0.1 µM on CDC7 (setting [3]).
Regarding `O=c1[nH]c(C[C@H]2CCCNC2)nc2c1oc1ccc(Br)cc12` [Compound 315, 8-bromo-2-[(3R)-piperidin-3-ylmethyl][1]benzofuro[3,2-d]pyrimidin-4(3H)-one], the IC50 (in test [1]; at CK2; at CDC7 (setting [2])) was below 10 µM each time.
In the case of `CN1CCN(Cc2nc3c(oc4cc(O)c(Br)cc43)c(=O)[nH]2)CC1` [Compound 438, 8-bromo-7-hydroxy-2-[(4-methylpiperazin-1-yl)methyl][1]benzofuro[3,2-d]pyrimidin-4(3H)-one], the IC50 (in test [1]; at CK2; at CDC7 (setting [2])) was below 10 µM throughout.
Regarding `CN1[C@@H]2CC[C@H]1CN(Cc1nc3c(oc4ccc(Br)cc43)c(=O)[nH]1)CC2` [Compound 425, 8-bromo-2-{[(1S,6R)-9-methyl-3,9-diazabicyclo[4.2.1]non-3-yl]methyl}[1]benzofuro[3,2-d]pyrimidin-4(3H)-one], the IC50 (in test [1]; at CK2; at CDC7 (setting [2])) was below 10 µM in each case.
As to `O=C(Nc1ccc(-c2nc3c(oc4ccc(Br)cc43)c(=O)[nH]2)c(Cl)c1)c1ncco1` [Compound 373, N-[4-(8-bromo-4-oxo-3,4-dihydro[1]benzofuro[3,2-d]pyrimidin-2-yl)-3-chlorophenyl]-1,3-oxazole-2-carboxamide], the 50% inhibitory concentration (IC50) (in test [1]; on CK2; at CDC7 (setting [2])) was below 10 µM in each case.
On to `O=c1[nH]c(CN2CC3CCC2C3O)nc2c1oc1ccc(Br)cc12` (stereo not drawn) [Compound 412, 8-bromo-2-[(7-hydroxy-2-azabicyclo[2.2.1]hept-2-yl)methyl][1]benzofuro[3,2-d]pyrimidin-4(3H)-one], for which the IC50 in test [1] is below 10 µM; on CK2, below 10 µM; at CDC7 (setting [2]) it was below 10 µM; on CDC7 (setting [3]), below 0.1 µM.
In the case of `O=c1[nH]c(CN2CCC(NCC3CCNCC3)C2)nc2c1oc1ccc(Br)cc12` (stereo not drawn) [Compound 110, 8-bromo-2-({3-[(piperidin-4-ylmethyl)amino]pyrrolidin-1-yl}methyl)[1]benzofuro[3,2-d]pyrimidin-4(3H)-one], the IC50 (in test [1]; at CK2; on CDC7 (setting [2])) was below 10 µM each time.
For `O=c1[nH]c(CNC2CC2)nc2c1oc1ccc(Br)cc12` [Compound 521, 8-bromo-2-[(cyclopropylamino)methyl][1]benzofuro[3,2-d]pyrimidin-4(3H)-one], the IC50 is below 10 µM in test [1], below 10 µM at CK2, below 10 µM on CDC7 (setting [2]) and below 0.1 µM at CDC7 (setting [3]).
With `O=c1[nH]c(CN2C[C@@H]3C[C@H]2CN3)nc2c1oc1ccc(Br)cc12` [Compound 119, 8-bromo-2-[(1S,4S)-2,5-diazabicyclo[2.2.1]hept-2-ylmethyl][1]benzofuro[3,2-d]pyrimidin-4(3H)-one], the IC50 in test [1] is below 10 µM; at CK2, below 10 µM; against CDC7 (CDC7 IC50 (Activity A), Table 1 activity class, symbol given only if active), below 10 µM; at CDC7 (CDC7 IC50 value, compounds in Table 1) it was below 0.1 µM.
Turning to `O=c1[nH]c([C@@H]2C[C@@H](O)CN2)nc2c1oc1ccc(Br)cc12` [Compound 488, 8-bromo-2-[(2S,4R)-4-hydroxypyrrolidin-2-yl][1]benzofuro[3,2-d]pyrimidin-4(3H)-one], the IC50 in test [1] was below 10 µM; on CK2, below 10 µM; at CDC7 (setting [2]) it was below 10 µM; on CDC7 (setting [3]) it was below 0.1 µM.
Consider `O=c1[nH]c(CN2CC[C@@H](F)C2)nc2c1oc1ccc(Br)cc12` [Compound 307, 8-bromo-2-{[(3R)-3-fluoropyrrolidin-1-yl]methyl}[1]benzofuro[3,2-d]pyrimidin-4(3H)-one], for which the IC50 was below 10 µM in test [1], below 10 µM on CK2, below 10 µM at CDC7 (setting [2]) and below 0.1 µM at CDC7 (setting [3]).
As to `O=c1[nH]c(CN2CC[C@H](O)C2)nc2c1oc1ccc3c(c12)OCO3` [Compound 476, 9-{[(3S)-3-hydroxypyrrolidin-1-yl]methyl}[1,3]dioxolo[4,5][1]benzofuro[3,2-d]pyrimidin-7(8H)-one], the IC50 in test [1] is below 10 µM; at CK2, below 10 µM; on CDC7 (setting [2]) it was below 10 µM; at CDC7 (setting [3]) it was below 0.1 µM.
Take `O=c1[nH]c([C@@H]2C[C@H](F)CN2)nc2c1oc1ccc(Br)cc12` [Compound 513, 8-bromo-2-[(2S,4S)-4-fluoropyrrolidin-2-yl][1]benzofuro[3,2-d]pyrimidin-4(3H)-one]: the half-maximal inhibitory concentration (IC50) was below 10 µM in test [1], below 10 µM on CK2, below 10 µM at CDC7 (setting [2]) and below 0.1 µM at CDC7 (setting [3]).
With `O=c1[nH]c([C@@H]2CCN2)nc2c1oc1ccc(Br)cc12` [Compound 509, 2-[(2S)-azetidin-2-yl]-8-bromo[1]benzofuro[3,2-d]pyrimidin-4(3H)-one], the 50% inhibitory concentration (IC50) is below 10 µM in test [1], below 10 µM on CK2, below 10 µM at CDC7 (setting [2]) and below 0.1 µM at CDC7 (setting [3]).
With `COc1ccc2oc3c(=O)[nH]c(CN4CC[C@H](O)C4)nc3c2c1` [Compound 451, 2-{[(3S)-3-hydroxypyrrolidin-1-yl]methyl}-8-(methyloxy)[1]benzofuro[3,2-d]pyrimidin-4(3H)-one], the IC50 (in test [1]; at CK2; at CDC7 (setting [2])) was below 10 µM each time.
`NC(Cc1cccs1)c1nc2c(oc3ccc(Br)cc32)c(=O)[nH]1` (stereo not drawn) [Compound 538, 2-[1-amino-2-(2-thienyl)ethyl]-8-bromo[1]benzofuro[3,2-d]pyrimidin-4(3H)-one]: the IC50 (in test [1]; on CK2; on CDC7 (setting [2])) was below 10 µM throughout.
For `O=c1[nH]c(C2CCCNC2)nc2c1oc1ccc(Br)cc12` (stereo not drawn) [Compound 158, 8-Bromo-2-piperidin-3-yl[1]benzofuro[3,2-d]pyrimidin-4(3H)-one], the IC50 was below 10 µM in test [1], below 10 µM at CK2, below 10 µM at CDC7 (setting [2]) and below 0.1 µM at CDC7 (setting [3]).
As to `O=C(Nc1ccc(-c2nc3c(oc4ccc(Br)cc43)c(=O)[nH]2)c(Cl)c1)c1cc(Cl)nc(Cl)c1` [Compound 294, N-[4-(8-bromo-4-oxo-3,4-dihydro[1]benzofuro[3,2-d]pyrimidin-2-yl)-3-chlorophenyl]-2,6-dichloropyridine-4-carboxamide], the IC50 (in test [1]; on CK2; on CDC7 (setting [2])) was below 10 µM throughout.
Take `O=c1[nH]c([C@@H]2C[C@H](O)CN2)nc2c1oc1ccc(Br)cc12` [Compound 511, 8-bromo-2-[(2S,4S)-4-hydroxypyrrolidin-2-yl][1]benzofuro[3,2-d]pyrimidin-4(3H)-one]: the IC50 is below 10 µM in test [1], below 10 µM on CK2, below 10 µM at CDC7 (setting [2]) and below 0.1 µM on CDC7 (setting [3]).
In the case of `NCCNC(=O)c1ccc(C(=O)Nc2ccc(-c3nc4c(oc5ccc(Br)cc54)c(=O)[nH]3)c(Cl)c2)nc1` [Compound 394, ′N′5′-(2-aminoethyl)-N′2′-[4-(8-bromo-4-oxo-3,4-dihydro[1]benzofuro[3,2-d]pyrimidin-2-yl)-3-chlorophenyl]pyridine-2,5-dicarboxamide], the IC50 (in test [1]; on CK2; on CDC7 (setting [2])) was below 10 µM throughout.
`Cc1cc(C(=O)Nc2ccc(-c3nc4c(oc5ccc(Br)cc54)c(=O)[nH]3)c(Cl)c2)no1` [Compound 362, N-[4-(8-bromo-4-oxo-3,4-dihydro[1]benzofuro[3,2-d]pyrimidin-2-yl)-3-chlorophenyl]-5-methylisoxazole-3-carboxamide]: the IC50 (in test [1]; on CK2; at CDC7 (setting [2])) was below 10 µM each time.
With `CC(C)C(c1nc2c(oc3ccc(Br)cc32)c(=O)[nH]1)N1CCCC1` (stereo not drawn) [Compound 153, 8-Bromo-2-(2-methyl-1-pyrrolidin-1-ylpropyl)[1]benzofuro[3,2-d]pyrimidin-4(3H)-one], the IC50 (in test [1]; at CK2; at CDC7 (setting [2])) was below 10 µM throughout.
As for `O=c1[nH]c(C2CCCO2)nc2c1oc1ccc(Br)cc12` (stereo not drawn) [Compound 499, 8-bromo-2-(tetrahydrofuran-2-yl)[1]benzofuro[3,2-d]pyrimidin-4(3H)-one], the IC50 (in test [1]; at CK2; at CDC7 (setting [2])) was below 10 µM in each case.
`O=C(Nc1ccc(-c2nc3c(oc4ccc(Br)cc43)c(=O)[nH]2)c(Cl)c1)c1ccnc(Cl)c1` [Compound 276, N-[4-(8-bromo-4-oxo-3,4-dihydro[1]benzofuro[3,2-d]pyrimidin-2-yl)-3-chlorophenyl]-2-chloropyridine-4-carboxamide]: the IC50 (in test [1]; at CK2; on CDC7 (setting [2])) was below 10 µM each time.

For the origin of these results see US20090247559A1 (Exelixis, Inc., priority 2007, published 2009).
